Reference: ChEMBL document CHEMBL1201862, “PubChem BioAssay data set” (2004)
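Protocol summary: plate cells (96-well), add compound at 5 concentrations, incubate 48 h, interpolate endpoints linearly. GI50 = concentration required for 50% inhibition of growth.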 Activity calls are given as the source filed them. Rule as the data show it: active = GI50 up to about 1.1 µM and inactive = higher.

Columns and labels:
Test in all cases: NCI tumour cell line growth inhibition, 48 h
OVCAR-8 = tested on: OVCAR-8
COLO 205 = tested on: COLO 205
CAKI-1 = tested on: CAKI-1
EKVX = tested on: EKVX
SK-OV-3 = tested on: SK-OV-3
NCI-H23 = tested on: NCI-H23
MOLT-4 = tested on: MOLT-4
HT-29 = tested on: HT-29
A549 = tested on: A549
HCT-116 = tested on: HCT-116
KM12 = tested on: KM12
LXFL 529 = tested on: LXFL 529
OVCAR-3 = tested on: OVCAR-3
SF-268 = tested on: SF-268
U-251 = tested on: U-251
UACC-62 = tested on: UACC-62
786-0 = tested on: 786-0
LOX IMVI = tested on: LOX IMVI
MDA-MB-231 = tested on: MDA-MB-231
MDA-MB-435 = tested on: MDA-MB-435

Measured: GI50

CO[C@H](c1ccccc1)[C@H](C)N(C)c1ccc2ccccc2c1C1=NC(C)(C)CO1
inactive: OVCAR-8 13.8 µM | COLO 205 13.8 µM | CAKI-1 > 10 µM | EKVX 20.1 µM | SK-OV-3 19.2 µM | NCI-H23 14.8 µM | MOLT-4 9.02 µM | HT-29 10.7 µM | A549 15.9 µM | HCT-116 10.8 µM | KM12 17.1 µM | LXFL 529 14.9 µM | OVCAR-3 15.9 µM | SF-268 18.4 µM | U-251 16 µM | UACC-62 33.1 µM | 786-0 16.2 µM

O/N=C1/C(=C/c2ccc(Cl)c(Cl)c2)CCCC1C(NO)c1ccc(Cl)c(Cl)c1 (stereo not given)
inactive: OVCAR-8 18.7 µM | COLO 205 18.3 µM | CAKI-1 18.8 µM | EKVX 21.9 µM | SK-OV-3 20.4 µM | NCI-H23 17.3 µM | MOLT-4 12.5 µM | HT-29 16.7 µM | A549 17.2 µM | HCT-116 16.2 µM | KM12 18 µM | LXFL 529 15.7 µM | OVCAR-3 14.7 µM | SF-268 23.5 µM | U-251 17.9 µM | UACC-62 18 µM | 786-0 19.5 µM

CC1(O)C(C)(O)C2(C)O[Te]3(OC12C)OC1(C)C(C)(O)C(C)(O)C1(C)O3 (stereo not given)
inactive: LOX IMVI 4.41 µM | OVCAR-8 16.1 µM | COLO 205 > 100 µM | EKVX > 100 µM | SK-OV-3 > 10 µM | NCI-H23 14.8 µM | MOLT-4 11.8 µM | HT-29 27.3 µM | A549 6.67 µM | KM12 23.7 µM | LXFL 529 16 µM | OVCAR-3 20.2 µM | SF-268 > 10 µM | U-251 10.8 µM | UACC-62 35.6 µM | 786-0 56.8 µM

CCCC(C)C[C@@H](C)CC(C)/C=C(\C)c1oc(=O)c(C)c(O)c1C.CC[C@@H](C)C[C@@H](C)C[C@@H](C)/C=C(\C)c1oc(=O)c(C)c(O)c1C (stereo not given in full)
inactive: LOX IMVI 17.1 µM | OVCAR-8 20.3 µM | COLO 205 28.2 µM | CAKI-1 13.4 µM | EKVX 15.2 µM | NCI-H23 10 µM | HT-29 13.9 µM | A549 17.3 µM | HCT-116 17.6 µM | KM12 20.4 µM | LXFL 529 13.2 µM | OVCAR-3 6.78 µM | SF-268 14.1 µM | U-251 14.5 µM | 786-0 14.5 µM

Cc1c(Cl)c2ccccc2n1S(=O)(=O)c1ccccc1
inactive: OVCAR-8 52.6 µM | COLO 205 > 100 µM | CAKI-1 58.7 µM | NCI-H23 41.1 µM | MOLT-4 37.4 µM | HT-29 46 µM | A549 41.3 µM | HCT-116 39.2 µM | KM12 37.9 µM | LXFL 529 42.1 µM | OVCAR-3 45 µM | SF-268 64 µM | U-251 88.9 µM | UACC-62 87.3 µM | 786-0 59.6 µM

Cc1no[n+]([O-])c1/C=N/NS(=O)(=O)c1ccccc1
inactive: OVCAR-8 > 100 µM | COLO 205 > 100 µM | CAKI-1 > 100 µM | EKVX > 100 µM | SK-OV-3 > 100 µM | NCI-H23 > 100 µM | MOLT-4 > 100 µM | HT-29 > 100 µM | A549 > 100 µM | HCT-116 > 100 µM | KM12 > 100 µM | LXFL 529 > 100 µM | OVCAR-3 > 100 µM | SF-268 > 100 µM | U-251 > 100 µM | UACC-62 > 100 µM | 786-0 > 100 µM

O=C1CCC2(CC1)SCCCS2
inactive: LOX IMVI > 100 µM | OVCAR-8 > 100 µM | COLO 205 > 100 µM | CAKI-1 > 100 µM | EKVX > 100 µM | SK-OV-3 > 100 µM | NCI-H23 > 100 µM | HT-29 > 100 µM | A549 > 100 µM | KM12 > 100 µM | LXFL 529 > 100 µM | OVCAR-3 > 100 µM | SF-268 > 100 µM | U-251 > 100 µM | UACC-62 > 100 µM | 786-0 > 100 µM

C/C(CC(=O)Nc1ccccc1C)=N/NS(=O)(=O)c1ccc(C)cc1
inactive: LOX IMVI > 100 µM | OVCAR-8 > 100 µM | COLO 205 > 100 µM | EKVX > 100 µM | SK-OV-3 > 100 µM | NCI-H23 > 100 µM | MOLT-4 > 100 µM | HT-29 > 100 µM | A549 > 100 µM | HCT-116 > 100 µM | KM12 > 100 µM | LXFL 529 > 100 µM | OVCAR-3 > 100 µM | SF-268 > 100 µM | U-251 > 100 µM | UACC-62 > 100 µM | 786-0 > 100 µM

COc1ccc([N+]2=NC(c3ccc([N+](=O)[O-])cc3)=NN(c3ccccc3)C2)cc1.[O-][Cl+3]([O-])([O-])[O-]
inactive: LOX IMVI 68.5 µM | OVCAR-8 > 100 µM | COLO 205 10 µM | EKVX 91.2 µM | NCI-H23 > 100 µM | MOLT-4 31.8 µM | HT-29 62.7 µM | A549 > 100 µM | HCT-116 65.5 µM | KM12 90.2 µM | LXFL 529 47.3 µM | OVCAR-3 79.4 µM | SF-268 > 100 µM | U-251 36.1 µM | 786-0 > 100 µM

COC(=O)CC(NC(=O)OCc1ccccc1)C(C(=O)OCc1ccccc1)C1(C)OCCO1 (stereo not given)
inactive: LOX IMVI 28.9 µM | OVCAR-8 25.2 µM | COLO 205 18.6 µM | EKVX 44.4 µM | NCI-H23 26.4 µM | MOLT-4 20.5 µM | HT-29 53.6 µM | A549 32.4 µM | HCT-116 40.4 µM | LXFL 529 18.8 µM | OVCAR-3 53.8 µM | SF-268 50.1 µM | U-251 33.1 µM | UACC-62 18.7 µM | 786-0 51.4 µM

O=S(=O)(c1cc(Cl)ccc1Cl)n1ccnc1
inactive: LOX IMVI 37.7 µM | OVCAR-8 35.4 µM | COLO 205 17.9 µM | CAKI-1 39.7 µM | MDA-MB-231 23.4 µM | EKVX 61.2 µM | SK-OV-3 > 100 µM | NCI-H23 20.9 µM | MOLT-4 32.6 µM | HT-29 29.2 µM | A549 58.2 µM | HCT-116 31.3 µM | KM12 33.6 µM | MDA-MB-435 18.2 µM | OVCAR-3 46.9 µM | SF-268 45.1 µM | U-251 33 µM | UACC-62 33.1 µM | 786-0 54.2 µM

CC1=C(C(=O)Nc2cc(=O)n(C)c(=O)n2C)C(c2cccc([N+](=O)[O-])c2)C(C(=O)Nc2cc(=O)n(C)c(=O)n2C)=C(C)N1
inactive: LOX IMVI > 100 µM | OVCAR-8 > 100 µM | COLO 205 > 100 µM | CAKI-1 > 100 µM | EKVX 15.9 µM | SK-OV-3 > 100 µM | NCI-H23 > 100 µM | MOLT-4 42.6 µM | HT-29 > 100 µM | A549 > 100 µM | KM12 > 100 µM | LXFL 529 > 100 µM | OVCAR-3 > 100 µM | SF-268 > 100 µM | U-251 > 100 µM | 786-0 > 100 µM
